# Test results taken from US8343977B2, “Substituted triazolo-pyrimidine compounds” (ArQule, Inc., priority 2009, dated 2013).
# Columns and labels:
# Tec kinase = biological target: T1, Tec kinase (Homo sapiens, UniProt P42680); assay: Tec Kinase Activity Assay; format: biochemical; conditions: test concentration not given
# T1 sequence (P42680 1-631): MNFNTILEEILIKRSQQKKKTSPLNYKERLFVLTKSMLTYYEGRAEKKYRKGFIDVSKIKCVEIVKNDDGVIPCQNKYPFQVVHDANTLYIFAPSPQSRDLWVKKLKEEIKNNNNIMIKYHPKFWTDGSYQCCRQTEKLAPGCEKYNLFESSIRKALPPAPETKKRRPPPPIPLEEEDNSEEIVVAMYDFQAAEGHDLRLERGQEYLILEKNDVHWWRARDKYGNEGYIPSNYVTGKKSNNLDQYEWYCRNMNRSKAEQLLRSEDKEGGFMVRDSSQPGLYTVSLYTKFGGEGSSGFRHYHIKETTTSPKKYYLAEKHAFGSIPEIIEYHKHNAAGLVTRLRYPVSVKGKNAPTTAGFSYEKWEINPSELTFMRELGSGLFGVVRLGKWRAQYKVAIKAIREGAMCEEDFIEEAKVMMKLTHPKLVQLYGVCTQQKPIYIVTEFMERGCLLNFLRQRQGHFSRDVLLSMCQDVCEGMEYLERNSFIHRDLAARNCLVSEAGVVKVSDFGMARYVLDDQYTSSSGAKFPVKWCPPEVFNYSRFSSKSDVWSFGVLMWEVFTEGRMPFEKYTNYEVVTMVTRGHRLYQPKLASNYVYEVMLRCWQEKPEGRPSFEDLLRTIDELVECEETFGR
# Method: Tec Kinase Activity Assay
# (§1) The disclosed compounds were assayed for their ability to inhibit the activity of Tec kinase. Nunc Maxisorb plates were coated with streptavidin by overnight incubation with 100 μL per well of 1 μg/mL Streptavidin in DPBS. Prior to the start of the experiment, the plates were washed with TBST (3×200 μL) and blocked for at least 1 hour by adding 150 μL of 5% BSA/TBST. The plates were washed with TBST (3×200 μL/well) and left dry immediately before the capture step.
# The test articles and controls (Staurosporine and Sutent) were prepared using the following assay buffer at 3× desired final concentration (50 mM Tris-HCl, 0.02 mg/mL BSA, 10 mM MgCl2, 0.1 mM Na3VO4, 1 mM EGTA, 75 μM ATP0.01% NP-40, 2 mM DTT in 10% glycerol/water). In a reaction plate were added rapidly 20 μL test article (or control) and 20 μL TEC 0.25 ng/μL. The plate was incubated for 30 minutes. To the reaction plate was added 20 μL of Pyk-2 0.5 ng/μL. The plate was incubated at room temperature for two hours.
# (§2) From the reaction plate, 50 μL was transferred to the streptavidin coated plate. The capture plate was incubated at room temperature for 30 minutes then washed 6× with TBST. To the capture plate was added 100 μL/well of Cell Signaling anti-phospho tyrosine at a dilution of 1:3000 in 2% BSA/TBST. The plate was incubated for one hour at room temperature then washed 6× with TBST. To the capture plate was added 100 μL/well of Alkaline Phosphatase Tagged Goat anti Mouse Antibody at a dilution of 1:4000 in 2% BSA/TBST. The plate was incubated for one hour at room temperature then washed 6× with TBST. The fluorescent readout was initiated by the addition of 100 μL/well of Attophos reagent (6 mg/10 mL). The reading was done on the Perkin Elmer Envision system.
# RET kinase = RET kinase (Homo sapiens, UniProt P07949); assay: RET Kinase Activity Assay; format: biochemical; conditions: test concentration not given
# Chain of RET kinase (P07949 29-1114): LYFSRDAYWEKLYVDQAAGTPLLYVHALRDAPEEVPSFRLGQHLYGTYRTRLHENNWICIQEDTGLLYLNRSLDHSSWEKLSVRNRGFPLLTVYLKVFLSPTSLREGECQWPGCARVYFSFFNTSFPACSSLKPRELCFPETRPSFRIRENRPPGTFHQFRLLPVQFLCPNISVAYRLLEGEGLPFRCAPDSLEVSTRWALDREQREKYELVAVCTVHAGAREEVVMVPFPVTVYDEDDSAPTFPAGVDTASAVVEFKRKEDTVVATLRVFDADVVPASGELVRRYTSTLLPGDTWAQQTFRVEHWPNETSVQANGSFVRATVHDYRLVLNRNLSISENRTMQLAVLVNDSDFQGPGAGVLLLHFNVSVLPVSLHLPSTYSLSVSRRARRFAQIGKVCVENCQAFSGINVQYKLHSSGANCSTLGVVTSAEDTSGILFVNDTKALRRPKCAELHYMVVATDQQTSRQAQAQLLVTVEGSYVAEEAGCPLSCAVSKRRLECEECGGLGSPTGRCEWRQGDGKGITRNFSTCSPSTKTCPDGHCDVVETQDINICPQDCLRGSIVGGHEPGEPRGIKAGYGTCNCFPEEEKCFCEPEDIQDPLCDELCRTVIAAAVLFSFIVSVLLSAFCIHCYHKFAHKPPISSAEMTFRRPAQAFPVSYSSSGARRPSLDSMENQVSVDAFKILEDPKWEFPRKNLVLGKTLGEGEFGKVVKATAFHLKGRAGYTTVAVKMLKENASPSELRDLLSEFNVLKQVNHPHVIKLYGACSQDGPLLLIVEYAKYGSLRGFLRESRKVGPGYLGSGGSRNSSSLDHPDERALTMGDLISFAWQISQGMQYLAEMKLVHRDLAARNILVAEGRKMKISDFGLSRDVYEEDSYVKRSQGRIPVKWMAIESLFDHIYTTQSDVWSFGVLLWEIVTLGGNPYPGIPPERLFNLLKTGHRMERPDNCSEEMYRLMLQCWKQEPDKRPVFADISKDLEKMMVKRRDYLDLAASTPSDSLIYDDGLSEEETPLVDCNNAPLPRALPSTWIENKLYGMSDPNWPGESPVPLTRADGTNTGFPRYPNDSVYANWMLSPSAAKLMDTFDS
# Method: RET Kinase Activity Assay
# as §1, with “RET” for “Tec”, “Maxwasorb” for “Maxisorb”
# The test articles and controls (Staurosporine and Sutent) were prepared using the following assay buffer at 3× desired final concentration (50 mM […], 0.02 mg/mL BSA, 10 mM MgCl2, 0.1 mM Na3VO4, 1 mM EGTA, 75 μM ATP0.01% NP-40, 2 mM DTT in 10% glycerol/water). In a reaction plate, were added rapidly 20 μL test article (or control) and 20 μL RET (0.25 ng/μL final concentration). The plate was incubated for 15 minutes. To the reaction plate was added 20 μL of Pyk-2 (0.25 ng/μL final concentration). The plate was incubated at room temperature for one hour.
# as §2, with “Envwasion” for “Envision”
# DLD-1 cancer cells = assay: MTS Assay; format: cell-based; conditions: Homo sapiens, DLD-1 cells, 72 h
# Method: Cells were maintained at 37° C., 5% CO2 in DMEM media supplemented with 1% fetal bovine serum, penicillin/streptomycin and fungizone (Invitrogen). Cells were seeded into 96-well tissue culture plates at 3000 per well and cultured at 37° C. for 18 hours. Test compounds were dissolved and diluted to 300× in DMSO then diluted 1:40 in DMEM. Cells were incubated with test compounds for 72 hours followed by incubation with tetrazolium compound (3-(4,5-dimethylthiazol-2-yl)-5-(3-carboxymethoxyphenyl)-2-(4-sulfophenyl)-2H-tetrazolium, inner salt; MTS) and the electron coupling reagent, phenazine methosulfate (PMS) for 4 hours. […] The ability of compounds to inhibit cell growth in this assay is correlated with the reduction of dehydrogenase enzyme activity found in metabolically active cells. The measurement of the absorbance of the formazan was assessed using a Victor (Perkin Elmer) microplate reader at 492 nm. The calculated IC50 value is the concentration of the test compound that causes a 50% decrease in the absorbance.
Compound,Kinase Activity (Tec kinase inhibition) (Tec kinase),Kinase Activity (RET kinase inhibition) (RET kinase),inhibition at 10 µM (DLD-1 cancer cells)
"Brc1cnc2nnc(-c3ccccc3)n2c1 [Compound 1, 6-bromo-3-phenyl-[1,2,4]triazolo[4,3-a]pyrimidine]",A (A indicates 75-100% inhibition),,
"Brc1cnc2nnc(-c3ccc(-c4cccnc4)cc3)n2c1 [Compound 2, 6-bromo-3-(4-(pyridin-3-yl)phenyl)-[1,2,4]triazolo[4,3-a]pyrimidine]",B (B indicates 50-75% inhibition),,
"c1ccc(-c2nnc3ncc(-c4cccc5[nH]ccc45)cn23)cc1 [Compound 3, 6-(1H-indol-4-yl)-3-phenyl-[1,2,4]triazolo[4,3-a]pyrimidine]",A (A indicates 75-100% inhibition),A (A indicates 75-100% inhibition),98%
"c1cc(-c2cnc3nnc(-c4ccncc4)n3c2)c2cc[nH]c2c1 [Compound 4, 6-(1H-indol-4-yl)-3-(pyridin-4-yl)-[1,2,4]triazolo[4,3-a]pyrimidine]",,A (A indicates 75-100% inhibition),
"c1ccc(Oc2ccccc2-c2cnc3nnc(-c4ccncc4)n3c2)cc1 [Compound 5, 6-(2-phenoxyphenyl)-3-(pyridin-4-yl)-[1,2,4]triazolo[4,3-a]pyrimidine]",B (B indicates 50-75% inhibition),B (B indicates 50-75% inhibition),13%
"c1ccc(Oc2ccc(-c3cnc4nnc(-c5ccncc5)n4c3)cc2)cc1 [Compound 6, 6-(4-phenoxyphenyl)-3-(pyridin-4-yl)-[1,2,4]triazolo[4,3-a]pyrimidine]",A (A indicates 75-100% inhibition),A (A indicates 75-100% inhibition),
"CS(=O)(=O)c1ccc(-c2nnc3ncc(-c4ccc(Oc5ccccc5)cc4)cn23)cc1 [Compound 7, 3-(4-(methylsulfonyl)phenyl)-6-(4-phenoxyphenyl)-[1,2,4]triazolo[4,3-a]pyrimidine]",A (A indicates 75-100% inhibition),A (A indicates 75-100% inhibition),98%
"COc1ccc(-c2cnc3nnc(-c4ccc(CC(C)C)cc4)n3c2)cc1 [Compound 8, 3-(4-isobutylphenyl)-6-(4-methoxyphenyl)-[1,2,4]triazolo[4,3-a]pyrimidine]",B (B indicates 50-75% inhibition),,74%
"CC(C)(C)c1ccc(-c2cnc3nnc(-c4ccc(C#N)cc4)n3c2)cc1 [Compound 9, 4-(6-(4-tert-butylphenyl)-[1,2,4]triazolo[4,3-a]pyrimidin-3-yl)benzonitrile]",B (B indicates 50-75% inhibition),A (A indicates 75-100% inhibition),39%
"Cc1ccc(-c2cnc3nnc(-c4ccc(S(C)(=O)=O)cc4)n3c2)c2ccccc12 [Compound 10, 6-(4-methylnaphthalen-1-yl)-3-(4-(methylsulfonyl)phenyl)-[1,2,4]triazolo[4,3-a]pyrimidine]",,A (A indicates 75-100% inhibition),
"CS(=O)(=O)c1ccc(-c2nnc3ncc(-c4ccccc4Oc4ccccc4)cn23)cc1 [Compound 11, 3-(4-(methylsulfonyl)phenyl)-6-(2-phenoxyphenyl)-[1,2,4]triazolo[4,3-a]pyrimidine]",,A (A indicates 75-100% inhibition),
